Experimental data: ChEMBL document CHEMBL1156829 (Proc Natl Acad Sci U S A, 2008)

Assays:
[1] = system: Plasmodium falciparum; assay: NOVARTIS: Inhibition of Plasmodium falciparum 3D7 (drug-susceptible) proliferation in erythrocyte-based infection assay; type: functional, organism-based; conditions: Plasmodium falciparum, 3D7
[2] = system: Plasmodium falciparum; assay: NOVARTIS: Inhibition of Plasmodium falciparum W2 (drug-resistant) proliferation in erythrocyte-based infection assay; type: functional, organism-based; conditions: Plasmodium falciparum, W2; read-out: EC50
[3] = NOVARTIS: Cytotoxicity against human hepatocellular carcinoma cell line (Huh7); type: toxicity, cell-based, Huh-7; conditions: Huh7 cells (hepatocellular carcinoma cell line)

Structure (SMILES) | EC50 [1] | EC50 [2] | CC50 [3]
Cc1cc(/C=C2\SC(=Nc3ccccc3)NC2=O)c(C)n1-c1cccc([N+](=O)[O-])c1 | 682 nM | 897 nM | > 100000 nM
Cc1nc([P+](c2ccccc2)(c2ccccc2)c2ccccc2)c(SCc2ccccc2)o1.[O-][Cl+3]([O-])([O-])[O-] | 456 nM | 621 nM | 68300 nM
c1ccc(CCNc2ncnc3c2[nH]c2ccccc23)cc1 | 167 nM | 136 nM | 15600 nM
CC(Cc1ccsc1)Nc1nc2nonc2nc1N(C)C (stereo not drawn) | 810 nM | 881 nM | > 100000 nM
Fc1ccc2[nH]c3c(NCCN4CCCCC4)ncnc3c2c1 | 154 nM | 214 nM | 23700 nM
Clc1cccc(Cl)c1C[n+]1ccc2ccccc2c1 | 1890 nM | 867 nM | > 100000 nM
Cc1ccc2[nH]c(C)c(Br)c(=O)c2c1 | 1240 nM | 884 nM | > 100000 nM
Cc1cc(C)cc(Nc2cc(C)nc3ncnn23)c1 | 1220 nM | 901 nM | > 100000 nM
CN(C)CCCNc1ncnc2c1[nH]c1ccc(Br)cc12 | 48.1 nM | 231 nM | 26500 nM
O=C(C1CC1)N1CCOc2c(cc(-c3csc4ccccc34)cc2OCCc2ccccn2)C1 | 711 nM | 594 nM | 68200 nM
COCCOC(=O)C1=C(C)NC2=C(C(=O)CCC2)C1c1ccc(OC)c(OC)c1OC (stereo not drawn) | > 6970 nM | 870 nM | > 100000 nM
O=C(Nc1ccccc1)C(=Cc1ccncc1)NC(=O)c1ccccc1 | > 2700 nM | 870 nM | > 100000 nM
CCCCCCCCCCCCCC(=O)Oc1ccccc1-c1nc2cc(C)ccn2c1NC(C)(C)CC(C)(C)C | 1520 nM | 88.4 nM | > 10000 nM
CCOC(=O)c1c(CN2CCN(CC#N)CC2)n(Cc2ccccc2)c2cc(Br)c(O)cc12 | 1180 nM | 884 nM | > 100000 nM
C#CCN1c2ccccc2Sc2cccnc21 | 50.4 nM | 321 nM | 36400 nM
CCOC(=O)c1cc(S(=O)(=O)NCc2ccc(F)cc2)n[nH]1 | > 847 nM | 88.1 nM | > 10000 nM
OC(CNCc1ccco1)Cn1c2ccc(Cl)cc2c2cc(Cl)ccc21 (stereo not drawn) | 5050 nM | 881 nM | > 100000 nM
CSc1nc(SC)c2c3c(sc2n1)CN(C)CC3 | 750 nM | 881 nM | > 100000 nM
CC(=O)N(C1=C(N(C)C)C(=O)c2ccccc2C1=O)c1ccc(Cl)c(Cl)c1 | 82 nM | 73.4 nM | 8350 nM
Fc1ccc(-c2c[n+](Cc3ccc(Cl)cc3Cl)c3n2CCC3)cc1 | 1450 nM | 880 nM | > 100000 nM
CCCCCCCC[n+]1c(C)n(C)c2cc(Cl)c(Cl)cc21 | 527 nM | 356 nM | 40500 nM
COC(=O)c1c(NC(=O)c2ccc(S(=O)(=O)N3CCOCC3)cc2)sc2c1CCN(C(C)=O)C2 | 8660 nM | 878 nM | > 100000 nM
CC(C)(C)C(=O)Cn1ccc(=N)c2ccccc21 | 2030 nM | 877 nM | > 100000 nM
CC(C)CNC(=O)c1ccc(OC2CCN(CC3CCCCC3)CC2)c(Cl)c1 | 326 nM | 130 nM | 14800 nM

Structure (SMILES) | EC50 [1] | EC50 [2] | CC50 [3]
COc1ccc(OC)c(-c2ccc(O)c(CN3CCCCCC3)c2)c1 | 570 nM | 87.6 nM | > 10000 nM
O=C(NCCCN1CCCCC1)c1ccc2c(c1)sc1nc(-c3ccc(F)cc3)cn12 | 694 nM | 870 nM | > 100000 nM
N#Cc1ccc2c(c1)nc1c3ccc4c5c(ccc(c(=O)n21)c53)C(=O)NC4=O | 3940 nM | 867 nM | > 100000 nM
CCc1ccc(C(=O)C[n+]2cc(-c3ccc(OC)cc3)n3c2CCC3)cc1 | 677 nM | 857 nM | > 98000 nM
Cc1cccc2c1[nH]c1nc(SCC(C)C)nnc12 | 1480 nM | 873 nM | > 100000 nM
COc1cc2c(cc1OC)C1Cc3ccc(OC)c(OC)c3CN1CC2 (stereo not drawn) | 2600 nM | 871 nM | > 100000 nM
CCc1ccc(O)c(-c2cc(C(=O)Nc3cccnc3)[nH]n2)c1 | 742 nM | 910 nM | > 100000 nM
CN(C)CCNC(=S)Nc1cccc(C(F)(F)F)c1 | 4030 nM | 897 nM | > 100000 nM
COc1ccc(-c2cc(C(F)(F)F)n3nc(C(=O)NC4CCCCC4)c(Cl)c3n2)cc1OC | > 441 nM | 34.8 nM | > 4020 nM
COc1cccc(-c2ccc(O)c(CN(C)CC(O)c3ccccc3)c2)n1 (stereo not drawn) | 246 nM | 90.4 nM | > 10000 nM
COc1cccc(OCC(=O)NN=C(C)CC(=O)NCc2ccco2)c1 | > 12500 nM | 901 nM | > 100000 nM
CCCC(=O)N1c2ccc(OC)cc2-c2c(ssc2=S)C1(C)C | 791 nM | 867 nM | > 100000 nM
O=C1C(Nc2ccc(F)cc2)=C(N2CCCCC2)C(=O)c2ccccc21 | 335 nM | 319 nM | 36800 nM
COc1c(C=NNc2nc(Nc3ccc([N+](=O)[O-])cc3)nc(N3CCN(C)CC3)n2)cccc1[N+](=O)[O-] | 340 nM | 493 nM | 56900 nM
C[n+]1c(/C=C/c2ccc(F)cc2)ccc2ccccc21 | 104 nM | 90.7 nM | > 10000 nM
Cc1cccc(NC(=O)CCCn2c(=O)c3cccn3c3ccccc32)c1C | 778 nM | 906 nM | > 100000 nM
C[n+]1oc(/C=C/c2ccccc2)cc1/C=C/c1ccccc1 | 110 nM | 88.8 nM | > 10000 nM
c1ccc2[nH]c(Sc3ncnc4sc5c(c34)CCC5)nc2c1 | 6840 nM | 909 nM | > 100000 nM
CCCCCCC[N+](CC)(CC)CCCCc1ccc(Cl)cc1 | 431 nM | 90.9 nM | > 10000 nM
CN(CCCNc1ccnc2cc(Cl)ccc12)C(=O)c1ccc(Cl)cc1 | 122 nM | 75.6 nM | > 8530 nM
O=C1c2ccccc2C(=O)c2c1ccc1nonc21 | 121 nM | 88.6 nM | > 10000 nM
Nc1ccc(C(=O)Nc2ccc(-c3nc4ccccc4o3)cc2)cc1 | 935 nM | 893 nM | > 100000 nM
COc1cc(Br)c(C2CC(=O)Nc3ccc4ccccc4c32)cc1OC (stereo not drawn) | 386 nM | 307 nM | 34400 nM
Cn1nccc1C(OCC(=O)N1CCOCC1)c1ccc(F)cc1 (stereo not drawn) | 134 nM | 89.2 nM | > 10000 nM

Structure (SMILES) | EC50 [1] | EC50 [2] | CC50 [3]
CC(=O)N(C1=C(N2CCOCC2)C(=O)c2ccccc2C1=O)c1cc(C)cc(C)c1 | 40.1 nM | 63.3 nM | 6940 nM
COc1cc(C2C(C(=O)OCC(C)C)=C(C)NC3=C2C(=O)CC(c2ccccc2)C3)cc(Br)c1O (stereo not drawn) | 850 nM | 911 nM | > 100000 nM
CN(C)c1cc[n+](CC(=O)Nc2ccc(Cl)cc2)cc1 | 549 nM | 897 nM | > 100000 nM
O=C(CCl)Nc1ccc(OC(F)F)cc1 | 317 nM | 162 nM | 18100 nM
O=C(Nc1ccc(-n2cccn2)cc1)C1CCN(Cc2nc3c(s2)CCCC3)CC1 | 1350 nM | 894 nM | > 100000 nM
NNc1nc(NCc2ccccc2)nc(N2CCOCC2)n1 | 71.8 nM | 89.4 nM | > 10000 nM
CCN(CC)c1ccc(N=Cc2ccc(Sc3nc4ccccc4s3)o2)cc1 | 271 nM | 98.8 nM | 10800 nM
c1ccc(-c2cc(NCc3ccco3)nc(-c3ccccn3)n2)nc1 | 182 nM | 91.4 nM | > 10000 nM
CCn1c(SCc2ccc(Cl)cc2Cl)nc2sc3c(c2c1=O)CCN(C)C3 | 942 nM | 900 nM | > 100000 nM
CCn1c(N=Nc2ccc(OC)cc2)nc2ccccc21 | 97.5 nM | 115 nM | 13000 nM
Cc1ccc(Cl)cc1N1CCN(S(=O)(=O)c2ccc3c(c2)oc(=O)n3C)CC1 | > 12500 nM | 882 nM | > 100000 nM
CSc1cccc(NC(=O)C2C3C=CC4(O3)C2C(=O)N(Cc2ccc(F)cc2)C4C(=O)NC2CCCC(C)C2C)c1 (stereo not drawn) | 1430 nM | 875 nM | > 100000 nM
N#Cc1ccc(NC(=O)NC2CC3CCCC(C2)N3CCc2ccccc2)cc1 (stereo not drawn) | 362 nM | 425 nM | 48600 nM
COc1cc(-c2cc(C)c3c(OC)ccc(OC)c3n2)cc2c1OCCN(C(=O)CCn1nc(C)cc1C)C2 | 2710 nM | 913 nM | > 100000 nM
Cc1c(C)c2c(c(C)c1O)CC[C@](C)(CN1CCN(c3cc(N4CCCC4)nc(N4CCCC4)n3)CC1)O2 | 175 nM | 384 nM | 42000 nM
CCCCCCCCCC(=O)Oc1ccccc1-c1nc2cc(C)ccn2c1NC(C)(C)CC(C)(C)C | 1010 nM | 88.8 nM | > 10000 nM
CC1(C)CC(=O)C2=C(C1)Nc1ccccc1N(C(=O)Cc1ccccc1)C2c1ccc([N+](=O)[O-])s1 (stereo not drawn) | > 1250 nM | 89.8 nM | > 10000 nM
CCOC(=O)C1=CN(C)C=C(C(=O)OCC)C1c1cc(Br)c(OCC)c(OC)c1 | 913 nM | 897 nM | > 100000 nM
CCC(C)(C)C1CCc2sc3ncnc(NN=Cc4c(Cl)cccc4Cl)c3c2C1 (stereo not drawn) | 733 nM | 904 nM | > 100000 nM
COc1cc(C(=O)C=CNc2ccc(N(C)C)cc2)cc(OC)c1OC | 2070 nM | 905 nM | > 100000 nM
S=C(NC1CCCCC1)NC1CC2CCC(C1)N2Cc1ccccc1 (stereo not drawn) | 2970 nM | 468 nM | 51400 nM
Cc1nc2sccn2c1-c1csc(Nc2ccccn2)n1 | 381 nM | 889 nM | > 100000 nM
CCCCCCCCCCCC(=O)N(C)CCCNc1ccnc2cc(Cl)ccc12 | 223 nM | 27.3 nM | 3010 nM
